Where a name gives a salt, the structure may show the parent alone.
Target: D(3) dopamine receptor (Rattus norvegicus, UniProt P19020)
Sequence (P19020 whole entry): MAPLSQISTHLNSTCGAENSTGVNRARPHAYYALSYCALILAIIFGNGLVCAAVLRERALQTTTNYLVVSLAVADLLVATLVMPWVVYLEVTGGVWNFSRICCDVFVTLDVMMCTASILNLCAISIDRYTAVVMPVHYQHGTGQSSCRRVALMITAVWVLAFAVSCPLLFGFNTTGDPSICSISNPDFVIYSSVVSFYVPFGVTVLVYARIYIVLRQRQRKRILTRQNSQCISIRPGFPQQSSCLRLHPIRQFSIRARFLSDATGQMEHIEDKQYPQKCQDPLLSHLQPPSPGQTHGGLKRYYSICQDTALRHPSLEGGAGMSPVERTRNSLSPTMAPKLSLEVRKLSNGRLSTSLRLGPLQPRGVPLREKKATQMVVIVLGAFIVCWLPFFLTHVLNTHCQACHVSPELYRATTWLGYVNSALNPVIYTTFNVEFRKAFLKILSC

| SMILES | Ki [nM] |
| --- | --- |
| CN1CCN(C2=Nc3cc(F)ccc3Cc3ccccc32)CC1 | 255 |
| CCCN[C@@H]1CCc2c(OC)cccc2[C@@H]1C | 438 |
| CN1CCN(C2=Nc3ccccc3Cc3ccccc32)CC1 | 919 |
| OCCN1CCN(CCCN2c3ccccc3Sc3ccc(C(F)(F)F)cc32)CC1 [2-[4-[3-[2-(trifluoromethyl)phenothiazin-10-yl]propyl]piperazin-1-yl]ethanol;hydrochloride] | 0.71 |
| CCc1cc(Cl)c(OC)c(C(=O)NC[C@@H]2CCCN2CC)c1O [3-Chloro-5-ethyl-N-((S)-1-ethyl-pyrrolidin-2-ylmethyl)-6-hydroxy-2-methoxy-benzamide] | 0.23 |
| CN1CCc2cccc3c2[C@H]1Cc1ccc(O)c(O)c1-3 [APOKYN] | 43.9 |
| COc1cc(N)c(Cl)cc1C(=O)N[C@@H]1C[C@H]2CCC[C@@H](C1)N2Cc1ccc(F)cc1 [BRL-34778] | 0.28 |
| Cc1nc2n(c(=O)c1CCN1CCC(C(=O)c3ccc(F)cc3)CC1)CCS2 [CAS_86487-64-1] | 106 |
| CCCN(CCC)C1C=Cc2c(OC)cccc2C1C (stereo not given) [CAS_5311190] | 36.5 |
| O=C(O)c1ccccc1C(=O)Nc1cccc2ccccc12 [NPA,(+)] | 0.81 |
